Read-outs that look alike come from different tables or passages of the source. Non-standard residues stand in square brackets, D forms with d. Residues, ends and D or L forms follow the SMILES beside them. *: point of attachment. Sta = CC(C)C[C@H](N)[C@@H](O)CC(=O)O; Isovaleryl = CC(C)CC(=O)*
Columns and labels:
[1] = system: peak II secretory protease of C. albicans ATCC 32354; test: Dns-ISEVNLDAEFR-amide cleavage by mono-Q peak II protease (HPLC, fluorimetric); format: biochemical
Experimental: (§1) The proteases secreted by C. albicans ATCC 32354 also hydrolyzed the fluorescent peptide Dns-Ile-Ser-Glu-Val-Asn-Leu-Asp-Ala-Glu-Phe-Arg-amide (SEQ ID NO: 4), abbreviated Dns-ISEVNLDAEFR-amide. Aliquots of the protease-containing fractions recovered from mono-Q chromatography described in Example 1 (2 to 10 μl) were incubated with 30 μM final concentration of the fluorescent substrate Dns-ISEVNLDAEFR-amide at 37° C. in 60 μl 50 mM sodium citrate buffer of pH 4.4 for 15 minutes, after which reactions were terminated by addition of 50 μM pepstatin A in 33% v/v methanol to 10 μM final concentration, and set aside for HPLC analysis. […] Unconverted Dns-ISEVNLDAEFR-amide (RT=5.55 min) and fluorescent products eluting at 4.2 min (Dns-Ile-Ser-Glu-Val-Asn-Leu (SEQ ID NO: 5), and 3.0 min (unidentified), were resolved and detected fluorimetrically.
(§2) The secretory aspartic proteases produced by other pathogenic C. albicans strains and Candida sp. are inhibitable by pepstatin A and are therefore of the aspartyl class. To determine if the peak I, II, or III protease activities secreted by ATCC 32354 were also of the aspartyl class, their susceptibility to inhibition by pepstatin A was determined. […]

[2] = system: C. albicans ATCC 32354; test: Growth of C. albicans in culture (A660nm); format: cell-based
Experimental: To study the effects of pepstatin A on growth of C. albicans, 0.1 ml of an overnight C. albicans culture was used to inoculate 10 ml cultures of either 1) YCB/BSA, or 2) a YD medium (0.2% yeast extract, 2% glucose) that contained 40 mM ammonium chloride. Pepstatin A was included in the cultures at final concentrations ranging between 0 and 10 μM (administered from a 50 μM aqueous stock). Growth of cultures at 30° C. was monitored by following A660nm. The growth of ATCC 32354 in YCB/BSA was inhibited about 90% by 2 μM pepstatin A (table II). This effect of pepstatin was fungistatic as resuspension of arrested cells in fermentation medium devoid of pepstatin A restored cell growth. […] Since ammonium chloride both removes dependence on, and suppresses the production of the secretory acid proteases, the mechanism of pepstatin inhibition action is likely to involve protease inhibition.

[3] = system: C. albicans ATCC 32354; test: Survival after lethal airway (intranasal) challenge in immunosuppressed mice; format: in vivo; settings: for ED50: Candida albicans, ATCC32354, ip, i.p. daily days 0-4, neutropenic mice, intranasal challenge, read-out: EC50 (survival, airway challenge)
Excerpt: (§3) To examine the role of the protease under conditions in which the challenge dose of C. albicans first has to cross the airway epithelium before it can disseminate, the following procedure was developed. To both mimic the immunosuppressed patient state and increase susceptibility of the test animals to C. albicans, mice were rendered neutropenic by treatment with cyclophosphamide, and received concurrent ciprofloxacin treatment to block opportunistic infection by endogenous gram negative flora.
(§4) Challenge inoculum was prepared by streaking Candida albicans (ATCC 32354) onto Sabouraud dextrose agar from a frozen glycerol stock and incubating overnight at 37° C. Five hours before challenge, the culture was re-streaked onto four Sabouraud dextrose agar slants and incubated (4 h. 37° C.). The culture was then washed from the agar slants with sterile saline, resuspended in fresh saline to achieve an A660nm of 0.2, and kept on ice until used. Fifty μl of a 10^-4 dilution of this challenge stock was plated to determine retrospectively the exact challenge dose in c.f.u. Female Swiss Webster mice (Charles River Breeding Laboratories, Inc., Wilmington, Mass., approx. 23 g, ten mice per group) received 125 mgKg^-1 cyclophosphamide i.p. in 0.2 ml of saline on days -5 and -3, 0, 2 and 4 of the study. On day 0, mice were anesthetized with 80 mgKg^-1 sodium pentobarbital i.p. and challenged intranasally with either 2.5×10^5 c.f.u. in 50 μl of saline or 50 μl of saline only (toxicity controls). On each of days 1 to 4 mice also received 50 mgKg^-1 Ciprofloxacin (i.p. in WFI/5% (w/v) glucose) to prevent bacterial infection in the immunocompromised mice. On days 0 to 4, groups of mice (n=10) received one of the following daily treatments (0.1 ml i.p.): saline, amphotericin B (0.1 to 1.0 mgKg^-1); and pepstatin A (0.06 to 6.0 mgKg^-1). Pepstatin A was dissolved in DMSO at 13.8 mgml^-1 and diluted 1:10 in saline for the 6 mgKg^-1 dose. Lower doses were diluted in normal saline serially from the 6 mgKg^-1 dose. Stock amphotericin B (5 mg/ml in WFI) was diluted in WFI containing 5% glucose. Treatment with drug on day zero was performed three hours prior to airway challenge with C. albicans. Survival was monitored for fifteen days following challenge. Toxicity controls were weighed daily over the duration of treatment. Animals from parallel groups (n=10) of mice were sacrificed at various stages and used to determine organ burdens and histopathology. Organ burdens were determined in parallel in 3 mice from parallel groups that were sacrificed on days 2, 4, and 17. Mice were anesthetized with sodium pentobarbital (80 mgKg^-1), bled by cardiac puncture, and then given a lethal dose of sodium pentobarbital. The kidneys, spleen, liver, and lungs were removed, weighed, and homogenized in 10 ml sterile PBS. Each organ homogenate (including heart blood) was serially diluted, plated on Sabauroud dextrose agar and incubated overnight at 37° C. Resulting colonies were counted to derive c.f.u./gram wet weight of organ.

[4] = system: C. albicans ATCC 32354; test: Mortality after intravenous challenge; format: in vivo, mice
Experimental: Female Swiss Webster mice (n=10 per treatment group) were challenged by tail vein injection with 10^6 c.f.u. Candida albicans ATCC 32354 in 0.2 ml saline and mortality was monitored over the following 14 days. Three hr prior to challenge with candida, and on days 1 to 5 post challenge with candida, mice also received one of the following compounds (i.p. in saline): saline alone; 0.6 mgKg^-1 pepstatin A, or 1 mgKg^-1 amphotericin B. Challenge inoculum containing C. albicans was prepared in the same manner as used for airway challenge experiments except that it was adjusted to a final A660nm of 2.0.

[5] = system: C. albicans; test: Control experiments with ciprofloxacin alone (data not shown); settings: ciprofloxacin by itself
Excerpt: as §3

[6] = system: peak I secretory protease of C. albicans ATCC 32354; test: Dns-ISEVNLDAEFR-amide cleavage by mono-Q peak I protease (HPLC, fluorimetric); format: biochemical; settings: peak I enzyme
Experimental: as §1, §2

[7] = system: peak III secretory protease of C. albicans ATCC 32354; test: Dns-ISEVNLDAEFR-amide cleavage by mono-Q peak III protease (HPLC, fluorimetric); format: biochemical; settings: peak III enzyme, read-out: I.C.50 Pepstatin
Experimental: as §1, §2

[8] = system: C. albicans ATCC 32354; test: Formation of hyphae in culture (Gram stain, microscopy); format: cell-based; settings: YCB/BSA, 48 hours, 2 μM and above
Experimental: Aliquots of cultures were removed after 48 hours, heat fixed on slides, and Gram stained (VWR Scientific, Inc., Boston, Mass.).

[9] = system: C. albicans ATCC 32354; test: Organ burdens (c.f.u.) after intranasal challenge in immunosuppressed mice; format: in vivo; parameters: C. albicans, kidney / C. albicans, lungs: scale not given here
Experimental: as §4

[10] = system: C. albicans ATCC 32354; test: Histopathology of lung sections after airway challenge; format: in vivo, mice; settings: 0.06 and 0.6 mg/Kg^-1
Experimental: For histopathology, mice from above described groups (two mice per group) were sacrificed on days 2 and 4 by administration of a lethal dose of sodium pentobarbitol. The lungs, liver, kidneys, and spleen were removed intact, embedded in paraffin, sectioned (5 μm), and stained with ammoniacal silver to visualize the Candida. Slides were stained by immersing in 4% periodic acid for 5 minutes, rinsing in distilled water five times, then immersing in a solution of ammoniacal silver (0.1% silver nitrate, 0.02% lithium hydroxide monohydrate) that had been heated by microwave (420 W for 1 min). Slides were microwaved in this solution for one minute then allowed to remain in the hot solution for one more minute before rinsing four times in distilled water and toning in 0.2% gold chloride for thirty seconds. Slides were then rinsed twice in distilled water, placed in 2% sodium thiosulfate for thirty seconds, then rinsed three times and dehydrated through graded alcohols. Finally, slides were cleared in 3-4 changes of xylene and mounted with Permount.

[11] = system: C. albicans; settings: administered prior to i.v. challenge with C. albicans; cited from earlier work
[12] = 0.6 mg Kg^-1, 4 days post challenge

1{92S,4S,5S)-5-[(2S)-3-(tert-Butylsulphonyl)-2-(1-naphthylmethyl)propanoyl]-(2R)N-(tert-butoxycarbonyl)-2-amino-2-[2-(1,3-dithiolan-2-yl)]ethanoyl]amino-6-cyclohexyl-4-hydroxy-2-(1-methyl)ethyl-hexanoyl}-s-isoleucinyl-2-yridylamide [compound X]
IC50 ([1]; peak II protease, read-out: I.C.50, in vitro activity of the peak II protease): 110 nM | effect on growth of C. albicans in YCB/BSA ([2]; YCB/BSA): blocked growth | A660 nm ([2]; YCB/BSA, 168 hours in culture, 10 μM (no compound 3.13)): 0.26 | protection against lethal airway challenge ([3]; 0.1 mgKg^-1): Complete protection

C[C@@H]1[C@H](O)[C@@H](C)/C=C/C=C/C=C/C=C/C=C/C=C/C=C/[C@H](O[C@@H]2O[C@H](C)[C@@H](O)[C@H](N)[C@@H]2O)C[C@@H]2O[C@](O)(C[C@@H](O)C[C@@H](O)[C@H](O)CC[C@@H](O)C[C@@H](O)CC(=O)O[C@H]1C)C[C@H](O)[C@H]2C(=O)O [amphotericin B]
protection against lethal airway challenge ([3]; 1 mgKg^-1 i.p. daily days 0-4, first dose 3 h before challenge): complete protection | ED50 [3]: ~0.1 mg/kg | survival rate after 14 days, i.v. challenge ([4]; 1 mgKg^-1 i.p., 3 hr prior and days 1 to 5): 70%

O=C(O)c1cn(C2CC2)c2cc(N3CCNCC3)c(F)cc2c1=O [ciprofloxacin]
effect on C. albicans in vitro or in vivo [5]: no effect

CC(C)CC(=O)N[C@H](C(=O)N[C@H](C(=O)N[C@@H](CC(C)C)[C@@H](O)CC(=O)N[C@@H](C)C(=O)N[C@@H](CC(C)C)[C@@H](O)CC(=O)O)C(C)C)C(C)C [pepstatin A] (Isovaleryl-VV[Sta]A[Sta]-OH)
IC50 ([6]; product eluting at 3.0 min, 15 min pre-incubation, 1 hr reaction, pH 4.4, read-out: I.C.50 Pepstatin): 9 nM | I.C.50 Pepstatin ([6]; product eluting at 4.2 min, N. I. = no inhibition): N. I. | IC50 ([1]; peak II enzyme, product eluting at 4.2 min, read-out: I.C.50 Pepstatin): 28 nM | IC50 ([7]; product eluting at 3.0 min): 29 nM | IC50 ([7]; product eluting at 4.2 min): 36 nM | inhibition at 2 µM ([2]; Candida albicans, ATCC32354, YCB/BSA, 2 μM): ~90% | nature of growth effect (resuspension without inhibitor restored growth) ([2]; YCB/BSA): fungistatic | A660 nm ([2]; YCB/BSA, 145 hours in culture, 2.0 μM (control 1.97)): 0.18 | A660 nm ([2]; YCB/BSA, 145 hours in culture, 10.0 μM (control 1.97)): 0.17 | inhibitory effect on growth in YD containing ammonium chloride ([2]; YD + 40 mM ammonium chloride, up to 10 μM): no significant inhibitory effects | A660 nm ([2]; YD + NH4Cl, 145 hours in culture, 2.0 μM (control 2.97)): 2.99 | A660 nm ([2]; YD + NH4Cl, 145 hours in culture, 10.0 μM (control 2.97)): 3.20 | formation of hyphae in cultures [8]: inhibited the formation of hyphae | survival ([3]; 0.6 mgKg^-1 i.p. daily days 0-4, airway challenge): 100% | ED50 [3]: ~0.06 mg/kg | protective effect upon pretreating mice ([3]; airway challenge, dose-dependent, 0.06 to 0.6 mgKg^-1): strong protective effect | C. albicans, kidney ([9]; 0.06 mg Kg^-1, 4 days post challenge (0 dose 39 ± 18.4)): 0.67 ± 0.15 c. f. u. g^-1 homogenized tiss | C. albicans, lungs ([9]; 0.06 mg Kg^-1, 4 days post challenge (0 dose 4,540 ± 2,160)): 0.58 ± 0.39 c. f. u. g^-1 homogenized tiss | C. albicans, kidney [9, 12]: 0.49 ± 0.22 c. f. u. g^-1 homogenized tiss | C. albicans, lungs [9, 12]: 0.13 ± 0.19 c. f. u. g^-1 homogenized tiss | c.f.u. recovered from the kidneys ([9]; all doses): a small number of c.f.u.'s were recovered | c.f.u. remaining in the lung tissue ([9]; intranasal challenge): dramatically reduced | dissemination to the spleen and liver ([9]; intranasal challenge): completely blocked dissemination | growth of C. albicans and hyphae formation in the lungs (histopathology) [10]: inhibited both the growth of C. albicans and hyphae formation | survival time post i.v. challenge ([4]; 0.6 mgKg^-1 i.p.): did not survive past day two | protective effect, classical i.v. challenge protocol ([4]; 0.6 mgKg^-1 i.p., 3 hr prior and days 1 to 5): no protective effect | reduced mortality in a statistically significant fashion (neither/nor = did not) [11]: neither

From patent US5833946A, “Dissemination of fungal infections: animal model and method of prophylaxis” (priority 1995, dated 1998)
